{
  "source": "PubChem BioAssay AID624420",
  "about": "(Sanford-Burnham Center for Chemical Genomics, 2012)",
  "data": [
    {"tested_on": "Human plasma stability, percent remaining", "experiment": "compound stability in Homo sapiens plasma, ADME assay, biochemical, second set (AID 624420)", "details": "at 1 µM", "units": {"plasma stability": "%"}, "values": [
      {"smiles": "CC[C@H]1CN2CCc3cc(OC)c(OC)cc3[C@@H]2C[C@@H]1C[C@H]1NCCc2cc(OC)c(OC)cc21", "plasma stability": 91.5},
      {"smiles": "O=C1C2CC=CCC2C(=O)N1c1n[nH]c(-c2ccccc2)n1", "note": "(stereo not given)", "plasma stability": 69.8},
      {"smiles": "O=C(CSc1cccc2cccnc12)N1CCCC1", "plasma stability": 99.3},
      {"smiles": "Cc1ccc(-n2c(N)c(C#N)c(-c3ccccc3)c(C#N)c2=O)cc1", "plasma stability": 99.8},
      {"smiles": "COc1ccc(CNCc2cccc3ccccc23)cc1", "plasma stability": 92.1},
      {"smiles": "COC(=O)c1ccccc1NC(=O)c1ccc(F)cc1", "plasma stability": 80},
      {"smiles": "O=C1NCCCc2c1oc1ccc(O)cc21", "plasma stability": 95.7},
      {"smiles": "O=C(COC(=O)C12CC3CC(CC(C3)C1)C2)NCc1ccco1", "plasma stability": 58.7},
      {"smiles": "Cc1cc(C)nc(-n2nc(C)c(Sc3ccc(F)cc3)c2N)n1", "plasma stability": 97},
      {"smiles": "COc1ccc(N(C(=O)CCl)C(C(=O)NCCc2ccccc2)c2cccs2)cc1Cl", "note": "(stereo not given)", "plasma stability": 68.2},
      {"smiles": "CCCc1cc(C(=O)N(C2CCCCC2)C2CCCCC2)no1", "plasma stability": 67.4},
      {"smiles": "Cc1cc(C)n(-c2nc(NCCCO)c3c4c(sc3n2)CCCC4)n1", "plasma stability": 88.5},
      {"smiles": "C=CCn1c(SCC(=O)c2ccc(O)c(O)c2)nnc1-c1ccccc1OC", "plasma stability": 100},
      {"smiles": "O=C1CCCC2=C1C1(CCCC1)N=C(Nc1nc3ccccc3o1)N2", "plasma stability": 100},
      {"smiles": "O=S(=O)(NC1CCCCC1N1CCOCC1)c1ccc(Cl)cc1", "note": "(stereo not given)", "plasma stability": 100},
      {"smiles": "CC1CCCN(C(C(=O)Nc2ccc3c(c2)OCCO3)c2ccccc2)C1", "note": "(stereo not given)", "plasma stability": 100},
      {"smiles": "Cc1ccc(NS(=O)(=O)c2ccc3c(c2)CCC(=O)N3)cc1C", "plasma stability": 100},
      {"smiles": "Cc1ccc(S(=O)(=O)n2c(N)nc3ccccc32)cc1", "plasma stability": 95.8},
      {"smiles": "O=c1[nH]c2c(s1)C(c1cccnc1)C1C3CCC(C3)C1S2", "note": "(stereo not given)", "plasma stability": 86.8},
      {"smiles": "Cc1cc(-c2nnc3n2CCCCC3)c(C)n1-c1ccccc1", "plasma stability": 87.9},
      {"smiles": "COc1ccc(CSc2nc(C)cc(=O)[nH]2)cc1", "plasma stability": 100},
      {"smiles": "Brc1ccc2c(c1)CN1CCCC1=N2", "plasma stability": 100},
      {"smiles": "CCOc1ccc(NC(=S)N2CCC(C(O)(c3ccccc3)c3ccccc3)CC2)cc1", "plasma stability": 63.7},
      {"smiles": "CSc1nc(-c2ccc(C)cc2)nc(C(Cl)Cl)n1", "plasma stability": 81.9},
      {"smiles": "CCCN1CNc2c(c(=O)[nH]c(=S)n2CCc2ccc(OC)c(OC)c2)C1", "plasma stability": 85.1},
      {"smiles": "CN(C)c1oc(-c2ccc(OCc3ccc(Cl)cc3)cc2)nc1C#N", "plasma stability": 94.3},
      {"smiles": "c1ccc(CC2CCN(c3ncnc4sccc34)CC2)cc1", "plasma stability": 100},
      {"smiles": "O=C(O)CCC(NS(=O)(=O)c1ccc(-c2ccccc2)cc1)C(=O)O", "note": "(stereo not given)", "plasma stability": 57},
      {"smiles": "CN(C)C1=C(Cl)C(=O)N(c2ccc(Cl)c(Cl)c2)C1=O", "plasma stability": 0.83},
      {"smiles": "Cc1ccc(C(=O)n2c3ccccc3c3ccccc32)cc1", "plasma stability": 92},
      {"smiles": "O=c1[nH]c(SCc2ccc(Cl)cc2)nc2c1CCC2", "plasma stability": 100},
      {"smiles": "Cc1cccc(-n2cnc3cc(C(=O)N4CCCCC4)ccc32)c1", "plasma stability": 87},
      {"smiles": "Cc1cc2c(s1)c1cnn(Cc3ccccc3F)c(=O)c1n2C", "plasma stability": 82.8},
      {"smiles": "NC(=O)C1CCN(c2nc(-c3ccc(Br)cc3)cs2)CC1", "plasma stability": 96.8},
      {"smiles": "CCCOc1ccc(-c2nc(OC)c3ccccc3n2)cc1", "plasma stability": 100},
      {"smiles": "O=C(COc1ccccc1Br)NCCc1nc2ccccc2[nH]1", "plasma stability": 88},
      {"smiles": "COc1ccc(C2c3c(ncn(CCN4CCOCC4)c3=N)Oc3ccc4ccccc4c32)cc1OC", "note": "(stereo not given)", "plasma stability": 93.5},
      {"smiles": "Cc1ccc(C)c(NS(=O)(=O)c2cc(C(=O)Nc3ccccc3-c3ccccc3)ccc2Cl)c1", "plasma stability": 100},
      {"smiles": "CCc1nnc(NC(=O)c2ccc(NS(=O)(=O)c3ccccc3)cc2)s1", "plasma stability": 100},
      {"smiles": "CC(C)C(=O)NC(c1ccco1)c1ccc2cccnc2c1O", "note": "(stereo not given)", "plasma stability": 100},
      {"smiles": "Cc1nc(SCc2nc3ccccc3[nH]2)c2oc3ccccc3c2n1", "plasma stability": 88},
      {"smiles": "CCOC(=O)C(C)Oc1cccc2c(=O)n(CC(=O)Nc3ccc4c(c3)OCCO4)ccc12", "note": "(stereo not given)", "plasma stability": 37.7},
      {"smiles": "N#C/C(=C\\c1ccc([N+](=O)[O-])o1)c1nc2ccccc2[nH]1", "plasma stability": 16.9},
      {"smiles": "COc1ccc(C2CC(c3ccccc3)=NN2c2ccc(S(N)(=O)=O)cc2)cc1", "note": "(stereo not given)", "plasma stability": 79.5},
      {"smiles": "CC(=O)c1ccc(N2CCN(S(=O)(=O)c3ccc4c(c3)CC(=O)N4)CC2)cc1", "plasma stability": 80.6},
      {"smiles": "Cn1nnnc1Sc1ncnc2scc(-c3ccccc3)c12", "plasma stability": 76.8},
      {"smiles": "Cc1ccc(NC(=O)CCC(=O)N/N=C/c2ccc([N+](=O)[O-])o2)cc1C", "plasma stability": 67},
      {"smiles": "O=C(O)c1ccccc1OCc1ccccc1Br", "plasma stability": 76.7},
      {"smiles": "O=c1c2ccccc2[se]n1-c1ccccc1", "plasma stability": 100},
      {"smiles": "CCCc1nc2c(=O)n(C)c(=O)nc-2n(C)n1", "plasma stability": 1.52},
      {"smiles": "Cc1ccccc1N1CCN(c2ncnc3c2cnn3Cc2ccc(Cl)cc2)CC1", "plasma stability": 88.2},
      {"smiles": "CCCn1ncc(CN2CCCC(C(=O)c3cccc(OC(C)C)c3)C2)c1C", "note": "(stereo not given)", "plasma stability": 100},
      {"smiles": "CCN1CCN(c2nc3ccccc3nc2C(C#N)C(=O)OC2CCCCC2)CC1", "note": "(stereo not given)", "plasma stability": 100},
      {"smiles": "CN(C)c1nc(N)nc(CSc2nnnn2-c2cccc3ccccc23)n1", "plasma stability": 100},
      {"smiles": "Cc1ccc(S(=O)(=O)C(c2ccccc2)c2c(C)noc2C)cc1", "note": "(stereo not given)", "plasma stability": 91.9},
      {"smiles": "O=[N+]([O-])c1ccc(CN2CCOCCOCCN(Cc3ccc([N+](=O)[O-])cc3)CCOCC2)cc1", "plasma stability": 98.3},
      {"smiles": "CCCC(=O)Nc1cccc(NC(=O)c2ccccc2Br)c1", "plasma stability": 87.8},
      {"smiles": "N#Cc1ccccc1CSc1nc2ncc(Br)cc2[nH]1", "plasma stability": 95.4},
      {"smiles": "COc1nc(-c2ccccc2)nnc1-c1ccccc1", "plasma stability": 100},
      {"smiles": "Cc1ccc(S(=O)(=O)NCc2ccc(C(=O)NCCN(Cc3ccccc3)C(C)C)cc2)cc1", "plasma stability": 100},
      {"smiles": "O=C(O)c1cccnc1SCCc1ccccc1", "plasma stability": 88.3},
      {"smiles": "Cc1ccnc(NC(=O)CCCOc2cc(=O)n(C)c3ccccc23)c1", "plasma stability": 100},
      {"smiles": "C/C=C/Cn1c(SCCCc2ccccc2)nc2c1c(=O)[nH]c(=O)n2C", "plasma stability": 98.5},
      {"smiles": "O=C(c1ccccn1)N(Cc1cccs1)C1(C(=O)NC2CCCCC2)CCCCC1", "plasma stability": 96.7},
      {"smiles": "Cc1ccc(N2CCN(S(=O)(=O)N3CCCCC3)CC2)c(C)c1", "plasma stability": 100},
      {"smiles": "O=C(O)c1ccc(N2C(=O)/C(=C/c3ccc(-c4ccc([N+](=O)[O-])cc4)o3)C=C2c2ccccc2)cc1", "plasma stability": 87.3},
      {"smiles": "O=S1(=O)Nc2c(ccc3cccnc23)-c2ccccc21", "plasma stability": 100},
      {"smiles": "CS(=O)(=O)c1ccc(C(=O)OCC(=O)NC23CC4CC(CC(C4)C2)C3)cc1[N+](=O)[O-]", "plasma stability": 0.07},
      {"smiles": "COc1cccc(-c2nc(-c3ccc(NC(=O)Cc4ccccc4OC)cc3)no2)c1", "plasma stability": 100},
      {"smiles": "c1ccc(-c2nnc(N3CCOCC3)nc2-c2ccccc2)cc1", "plasma stability": 100},
      {"smiles": "O=C(CCNS(=O)(=O)c1cccc2nsnc12)N1CCN(c2ccccn2)CC1", "plasma stability": 91.2},
      {"smiles": "Cc1ccc(C)c(OCCn2cc(C(=O)O)c3ccccc32)c1", "plasma stability": 91.6},
      {"smiles": "COc1ccc(S(=O)(=O)N2CCN(S(=O)(=O)c3ccc4c(c3)OCCO4)CC2)cc1", "plasma stability": 96.4},
      {"smiles": "Cn1cnc([N+](=O)[O-])c1Sc1ncnc2nc[nH]c12", "plasma stability": 83.2},
      {"smiles": "c1ccc2c(Nc3nnc(-c4ccncc4)s3)cccc2c1", "plasma stability": 99.5},
      {"smiles": "Cc1cc(C(=O)CN2C(=O)CCC2=O)c(C)n1Cc1ccccc1", "plasma stability": 84},
      {"smiles": "CCOc1ccc(-c2nc(-c3ccncc3)no2)cc1OCC", "plasma stability": 100},
      {"smiles": "COc1ccc(OC)c(S(=O)(=O)Nc2cnc3ccccc3c2)c1", "plasma stability": 83},
      {"smiles": "Brc1cc2c(cc1C1Nc3ccccc3C3C=CCC31)OCO2", "note": "(stereo not given)", "plasma stability": 97},
      {"smiles": "COc1ccc(Sc2ccc(NC(=O)c3ccccc3Cl)cc2C#N)cc1", "plasma stability": 91.9},
      {"smiles": "CCCN(CCC)CCNC(=O)C1CCN(Cc2nc(-c3ccc(Cl)cc3)oc2C)CC1", "plasma stability": 100},
      {"smiles": "COc1ccc(OC)c(-c2nnc3n2N=C(c2ccc(OC)c(OC)c2)CS3)c1", "plasma stability": 100},
      {"smiles": "COc1ccc(S(=O)(=O)n2nc(OC(=O)c3ccccc3)cc2N)cc1", "plasma stability": 0.3},
      {"smiles": "CCc1oc2ccccc2c1C(=O)c1cc(Br)c(O)c(Br)c1", "plasma stability": 94.6},
      {"smiles": "COc1ccccc1N(/N=C1\\Sc2ccccc2C1=O)C(C)=O", "plasma stability": 94.1}
    ]}
  ]
}
